These results are taken from PMC7970304, “The Effects of Apelin and Elabela Ligands on Apelin Receptor Distinct Signaling Profiles” (Frontiers in Pharmacology, 2021).

One assay has as its target APJ. Set-up: method as in Couvineau et al., 2020. The following applies: displacement of 125I-pE13F; ref Couvineau et al., 2020; cited from earlier work. A general note: Loss of bound radioactivity is the signal in a displacement assay; it reports binding, not function.
Assay [1] concerns the target T1, APJ (Apelin receptor) (Homo sapiens, UniProt P35414).
T1 sequence (P35414 1-380): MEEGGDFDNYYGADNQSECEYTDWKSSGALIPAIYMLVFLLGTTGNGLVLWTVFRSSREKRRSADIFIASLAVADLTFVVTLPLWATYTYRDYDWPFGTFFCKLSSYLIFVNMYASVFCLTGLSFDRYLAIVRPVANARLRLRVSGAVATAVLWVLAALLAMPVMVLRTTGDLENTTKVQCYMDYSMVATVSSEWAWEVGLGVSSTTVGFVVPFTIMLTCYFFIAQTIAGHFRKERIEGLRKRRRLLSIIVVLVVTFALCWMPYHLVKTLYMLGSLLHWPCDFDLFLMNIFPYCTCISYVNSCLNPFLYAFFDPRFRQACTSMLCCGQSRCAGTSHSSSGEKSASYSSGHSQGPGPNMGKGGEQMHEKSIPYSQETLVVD
Kind of assay: Intracellular calcium assay (Fluo-4 NW). The assay is classed as cell-based. The procedure: HEK293 cells stably expressing APJ were plated at 10^4 cells per well in 96-well black microplates pretreated with a 0.1 mg/ml solution of poly-D-lysine for 24 h. Calcium fluorescence signals in cells were measured using the Fluo-4 NW calcium assay kit (Thermo Fisher Scientific) according to the manufacturer’s instructions ([Chen et al., 2014]; [Wang et al., 2017]). Before detection, cells were washed twice with assay buffer (1 × HBSS, 20 mM HEPES). One hundred microlitres of the dye loading solution was added to each well of a 96-well plate. Cells were incubated at 37°C in 5% CO2 humidified atmosphere for 30 min, then at room temperature for an additional 30 min. Cells were stimulated with six ligands (100 nM) for 5 min, then calcium signals were immediately measured on a Mithras LB940 plate reader (Berthold Technologies, Bad Wildbad, Germany) with an excitation wavelength of 485 nm and an emission wavelength of 525 nm. Dose response curve: cells were stimulated with different concentrations of six peptides for 30 s, and calcium fluorescence was detected. The calculation of the calcium fluorescence ratio was described previously ([Chen et al., 2014]).
The concentration-response data for the ligands in various assays were analyzed to determine the biases of the ligands for G protein dependent signaling or β-arrestin dependent signaling, according to a previously published method ([Kenakin et al., 2012]; [Hager et al., 2016]; [Hothersall et al., 2017]). Briefly, the concentration-response data for each ligand were fitted to the Black–Leff operation model to obtain the values of τ and K A, using the following equation: Response=[A]^nτ^nEm/[A]^nτ^n+([A]KA)^n where [A] is the concentration of the agonist, E m is the maximal response of the system, n is the transducer slope, and K A and τ describe the affinity and efficacy of the agonist, respectively. In the data fitting, the reparametrized form of the equation proposed by [Kenakin et al. (2012)] was used: Response=Em/1+exp{nln[1+exp(β1)/[A]]−nβ2} where β 1 and β 2 are the natural logarithm of K A and τ, respectively, and E m was set to 1. Thus, for each concentration-response curve, a non-linear regression was performed to fit the above equation to give β 1 and β 2 (as well as n). Log (τ/K A) values (“transduction coefficients”) for each ligand vs. each pathway were obtained. […] The ΔΔlog (τ/K A), or Log (Bias), which is the logarithm of the bias factor for a given pathway over a reference pathway (here, intracellular calcium release), was calculated for each ligand as Δlog (τ/K A)–Δlog (τ/K A)Calcium. The 95% confidence interval (CI) was expressed as the mean ± standard error; Log (Bias) values, whose 95% CI crosses 0, were considered statistically insignificant.
The data were analyzed using GraphPad Prism v5.0. All the data are presented as the mean ± SEM. Differences between groups were compared by one-way analysis of variants (ANOVA), followed by post-hoc tests (Tukey’s test), When p < 0.05, the difference was considered significant. All experiments were repeated at least four times. The dose-response curves were generated using non-linear fitting model log (agonist) vs. response (three-parameters), with Hill Slope held to 1, i.e., Y = Bottom + (Top-Bottom)/(1 + 10^(LogEC50-X)).
HEK293 cells stably expressed APJ, and in 30 s, the dose response curve stimulated with six peptides was measured. Data represent mean ± SEM from four independent experiments (Supplementary Table S2). With six peptides (B) stimulation, the dose-response curve of GRK2 recruited to APJ was measured by BRET (at 15 min). p < 0.05 was considered as statistically significant. Data represent mean ± SEM from four independent experiments (Supplementary Table S3).
P<0.05 was considered as statistically significant. Control group (HG, Cells were stimulated with high glucose).
(Calcium flux is commonly read through the fluorescence of an indicator in the cells.)

In assay [2] the target is T1, APJ (Apelin receptor). Put plainly: Analysis of ligand bias across APJ pathways. The assay is classed as cell-based. Set-up: APJ membrane preparations were obtained from transiently transfected HEK293 cells; host or cells: HEK293 cells, transiently transfected; membranes prepared. The following applies: reference ligand Apelin-13, reference pathway calcium release. The procedure:
The concentration-response data for the ligands in various assays were analyzed to determine the biases of the ligands for G protein dependent signaling or β-arrestin dependent signaling, according to a previously published method ([Kenakin et al., 2012]; [Hager et al., 2016]; [Hothersall et al., 2017]). Briefly, the concentration-response data for each ligand were fitted to the Black-Leff operation model to obtain the values of τ and K A, using the following equation: Response=[[…] where [A] is the concentration of the agonist, E m is the maximal response of the system, n is the transducer slope, and K A and τ describe the affinity and efficacy of the agonist, respectively. In the data fitting, the reparametrized form of the equation proposed by [Kenakin et al. (2012)] was used: Response=[…]β2} where β 1 and β 2 are the natural logarithm of K A and τ, respectively, and E m was set to 1. […] The ΔΔlog (τ/K A), or Log (Bias), which is the logarithm of the bias factor for a given pathway over a reference pathway (here, intracellular calcium release), was calculated for each ligand as Δlog (τ/K A)-Δlog (τ/K A)Calcium. The 95% confidence interval (CI) was expressed as the mean ± standard error; Log (Bias) values, whose 95% CI crosses 0, were considered statistically insignificant.

The mark [3] stands for this setting: Ca2+ (reference pathway), reference ligand Apelin-13.

Entries after “also recorded” stand apart in the source; their conditions may differ.

As for `CSCC[C@H](NC(=O)[C@@H]1CSSC[C@H](NC(=O)[C@H](CC(N)=O)NC(=O)[C@H](Cc2c[nH]cn2)NC(=O)[C@H](CCCCN)NC(=O)[C@H](CCCNC(=N)N)NC(=O)[C@@H](N)CC(C)C)C(=O)N[C@@H](CC(C)C)C(=O)N[C@@H](CCC(N)=O)C(=O)N[C@@H](CCCNC(=N)N)C(=O)N[C@@H](CCCNC(=N)N)C(=O)N1)C(=O)N1CCC[C@H]1C(=O)N[C@@H](CC(C)C)C(=O)N[C@@H](Cc1c[nH]cn1)C(=O)N[C@@H](CO)C(=O)N[C@@H](CCCNC(=N)N)C(=O)N[C@H](C(=O)N1CCC[C@H]1C(=O)N[C@@H](Cc1ccccc1)C(=O)N1CCC[C@H]1C(=O)O)C(C)C` [Elabela-21], the pKi (as a rule, the Ki on a negative log10 scale, so that one unit is a factor of ten) at APJ is recorded as 9.49. In addition, the “P vs HG, intracellular calcium” value at APJ (Apelin receptor) [1] (0.001 nM) is “P>0.05”; on APJ (Apelin receptor) [1] (0.01 nM), “P>0.05”; at APJ (Apelin receptor) [1] (0.1 nM), “P>0.05”; at APJ (Apelin receptor) [1] (1 nM), “P>0.05”; on APJ (Apelin receptor) [1] (10 nM), “^*P<0.05”; on APJ (Apelin receptor) [1] (100 nM) it was “^***P<0.001”. Moreover, the “P vs HG, intracellular calcium” value on APJ (Apelin receptor) [1] (1000 nM) was “^***P<0.001”. In addition, the Bias factor on APJ (Apelin receptor) [1] (setting [3]) turned out to be 1.0. For the same compound, at APJ (Apelin receptor) [1] (setting [3]), the “Log (Bias)” value was found to be 0.0. Besides, the “log (τ/KA)” value at APJ (Apelin receptor) [1] (Ca2+ pathway, Black–Leff operational model) is recorded as −1.8. For the same compound, the “Δlog (τ/KA)” value on APJ (Apelin receptor) [1] (Ca2+ pathway, relative to Apelin-13) is listed as −1.6. At APJ (Apelin receptor) [2], the “signaling bias profile (in words)” value is “much stronger activity on the cAMP pathway; also recorded: weaker activity; also recorded: very weak effects on β-arrestin dependent pathways”.
